Measured values taken from PubChem BioAssay (NCI).
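GI50 is the concentration that inhibits growth by half. TGI: concentration producing complete growth inhibition.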

What was measured:
Test in all cases: NCI anticancer screen, dose series, 384-well format
EKVX NSCLC = system: EKVX NSCLC
OVCAR-3 ovarian = system: OVCAR-3 ovarian
COLO 205 colon = system: COLO 205 colon
CAKI-1 renal = system: CAKI-1 renal
OVCAR-5 ovarian = system: OVCAR-5 ovarian
SN12C renal = system: SN12C renal
PC-3 prostate = system: PC-3 prostate
NCI/ADR-RES ovarian = system: NCI/ADR-RES ovarian
IGROV1 ovarian = system: IGROV1 ovarian
SNB-19 CNS = system: SNB-19 CNS
HL-60(TB) leukemia = system: HL-60(TB) leukemia
SF-268 CNS = system: SF-268 CNS
SF-295 CNS = system: SF-295 CNS
MDA-MB-468 breast = system: MDA-MB-468 breast
KM12 colon = system: KM12 colon
M14 melanoma = system: M14 melanoma
TK-10 renal = system: TK-10 renal
OVCAR-8 ovarian = system: OVCAR-8 ovarian
SK-MEL-5 melanoma = system: SK-MEL-5 melanoma
MDA-MB-435 melanoma = system: MDA-MB-435 melanoma
SK-MEL-28 melanoma = system: SK-MEL-28 melanoma
RXF 393 renal = system: RXF 393 renal
K-562 leukemia = system: K-562 leukemia
SK-MEL-2 melanoma = system: SK-MEL-2 melanoma
MALME-3M melanoma = system: MALME-3M melanoma
SK-OV-3 ovarian = system: SK-OV-3 ovarian
HCC-2998 colon = system: HCC-2998 colon
NCI-H226 lung = system: NCI-H226 lung
A549 NSCLC = system: A549 NSCLC
HOP-92 NSCLC = system: HOP-92 NSCLC
CCRF-CEM leukemia = system: CCRF-CEM leukemia
HCT-116 colon = system: HCT-116 colon
UACC-257 melanoma = system: UACC-257 melanoma
HOP-62 NSCLC = system: HOP-62 NSCLC
MOLT-4 leukemia = system: MOLT-4 leukemia
A498 renal = system: A498 renal
DU-145 prostate = system: DU-145 prostate
T-47D breast = system: T-47D breast
HS 578T breast = system: HS 578T breast
786-0 renal = system: 786-0 renal
ACHN renal = system: ACHN renal
SR leukemia = system: SR leukemia
NCI-H460 NSCLC = system: NCI-H460 NSCLC
SNB-75 CNS = system: SNB-75 CNS
NCI-H23 lung = system: NCI-H23 lung
RPMI-8226 leukemia = system: RPMI-8226 leukemia
HCT-15 colon = system: HCT-15 colon

Compound: Nc1nc(OCc2cc(Br)cs2)c2[nH]cnc2n1
- GI50 (EKVX NSCLC): 39.9 µM
- TGI (EKVX NSCLC): > 100 µM
- GI50 (OVCAR-3 ovarian): 61.8 µM
- TGI (OVCAR-3 ovarian): > 100 µM
- GI50 (COLO 205 colon): 72.9 µM
- TGI (COLO 205 colon): > 100 µM
- GI50 (CAKI-1 renal): 25.1 µM
- TGI (CAKI-1 renal): 86.6 µM
- GI50 (OVCAR-5 ovarian): > 95.3 µM
- TGI (OVCAR-5 ovarian): > 100 µM
- GI50 (SN12C renal): 29 µM
- TGI (SN12C renal): > 100 µM
- GI50 (PC-3 prostate): 74 µM
- TGI (PC-3 prostate): > 100 µM
- GI50 (NCI/ADR-RES ovarian): 53.7 µM
- TGI (NCI/ADR-RES ovarian): > 100 µM
- GI50 (IGROV1 ovarian): 30.7 µM
- TGI (IGROV1 ovarian): > 100 µM
- GI50 (SNB-19 CNS): 70 µM
- TGI (SNB-19 CNS): > 100 µM
- GI50 (HL-60(TB) leukemia): 18 µM
- TGI (HL-60(TB) leukemia): 35.8 µM
- GI50 (SF-268 CNS): 32.1 µM
- TGI (SF-268 CNS): > 84.9 µM
- GI50 (SF-295 CNS): 48.7 µM
- TGI (SF-295 CNS): > 100 µM
- GI50 (MDA-MB-468 breast): 16.9 µM
- TGI (MDA-MB-468 breast): 47.5 µM
- GI50 (KM12 colon): 87.2 µM
- TGI (KM12 colon): > 100 µM
- GI50 (M14 melanoma): 47.9 µM
- TGI (M14 melanoma): > 100 µM
- GI50 (TK-10 renal): 30.5 µM
- TGI (TK-10 renal): > 100 µM
- GI50 (OVCAR-8 ovarian): 45.9 µM
- TGI (OVCAR-8 ovarian): > 100 µM
- GI50 (SK-MEL-5 melanoma): 40.9 µM
- TGI (SK-MEL-5 melanoma): > 100 µM
- GI50 (MDA-MB-435 melanoma): 43.1 µM
- TGI (MDA-MB-435 melanoma): > 100 µM
- GI50 (SK-MEL-28 melanoma): > 100 µM
- TGI (SK-MEL-28 melanoma): > 100 µM
- GI50 (RXF 393 renal): 24.5 µM
- TGI (RXF 393 renal): 62.7 µM
- GI50 (K-562 leukemia): 27.8 µM
- TGI (K-562 leukemia): > 100 µM
- GI50 (SK-MEL-2 melanoma): 35.5 µM
- TGI (SK-MEL-2 melanoma): 73.6 µM
- GI50 (MALME-3M melanoma): 55.1 µM
- TGI (MALME-3M melanoma): > 100 µM
- GI50 (SK-OV-3 ovarian): 29.1 µM
- TGI (SK-OV-3 ovarian): 74.7 µM
- GI50 (HCC-2998 colon): 66.7 µM
- TGI (HCC-2998 colon): > 100 µM
- GI50 (NCI-H226 lung): 45.9 µM
- TGI (NCI-H226 lung): 96.9 µM
- GI50 (A549 NSCLC): 42.6 µM
- TGI (A549 NSCLC): > 100 µM
- GI50 (HOP-92 NSCLC): 40.8 µM
- TGI (HOP-92 NSCLC): > 100 µM
- GI50 (CCRF-CEM leukemia): 19.4 µM
- TGI (CCRF-CEM leukemia): 40.3 µM
- GI50 (HCT-116 colon): 38.4 µM
- TGI (HCT-116 colon): > 100 µM
- GI50 (UACC-257 melanoma): 51.7 µM
- TGI (UACC-257 melanoma): > 100 µM
- GI50 (HOP-62 NSCLC): 36.7 µM
- TGI (HOP-62 NSCLC): 99.4 µM
- GI50 (MOLT-4 leukemia): 17.3 µM
- TGI (MOLT-4 leukemia): 37.5 µM
- GI50 (A498 renal): 30.3 µM
- TGI (A498 renal): > 100 µM
- GI50 (DU-145 prostate): 44.7 µM
- TGI (DU-145 prostate): > 100 µM
- GI50 (T-47D breast): 23.4 µM
- TGI (T-47D breast): 63.5 µM
- GI50 (HS 578T breast): 22.8 µM
- TGI (HS 578T breast): 61.9 µM
- GI50 ([…]-0 renal): 27.3 µM
- TGI (786-0 renal): > 100 µM
- GI50 (ACHN renal): 30.2 µM
- TGI (ACHN renal): > 100 µM
- GI50 (SR leukemia): 8.96 µM
- TGI (SR leukemia): 25.2 µM
- GI50 (NCI-H460 NSCLC): 40.3 µM
- TGI (NCI-H460 NSCLC): > 100 µM
- GI50 (SNB-75 CNS): 29.7 µM
- TGI (SNB-75 CNS): 85.4 µM
- GI50 (NCI-H23 lung): 42.4 µM
- TGI (NCI-H23 lung): > 100 µM
- GI50 (RPMI-8226 leukemia): 20.4 µM
- TGI (RPMI-8226 leukemia): 40.4 µM
- GI50 (HCT-15 colon): 33.9 µM
- TGI (HCT-15 colon): > 100 µM
